# Measurements reported in patent publication US20230384330A1, “COMPOSITIONS AND METHODS RELATING TO THE IDENTIFICATION AND TREATMENT OF IMMUNOTHROMBOTIC CONDITIONS” (THE REGENTS OF THE UNIVERSITY OF MICHIGAN, priority 2020, published 2023).
# “Also recorded” adds a separate entry of the source.
# B1: Annexin V (protein, UniProt P08758 2-320, looked up)
# Annexin A5: AQVLRGTVTDFPGFDERADAETLRKAMKGLGTDEESILTLLTSRSNAQRQEISAAFKTLFGRDLLDDLKSELTGKFEKLIVALMKPSRLYDAYELKHALKGAGTNEKVLTEIIASRTPEELRAIKQVYEEEYGSSLEDDVVGDTSGYYQRMLVVLLQANRDPDAGIDEAQVEQDAQALFQAGELKWGTDEEKFITIFGTRSVSHLRKVFDKYMTISGFQIEETIDRETSGNLEQLLLAVVKSIRSIPAYLAETLYYAMKGAGTDDHTLIRVMVSRSEIDLFNIRKEFRKNFATSLYSMIKGDTSGDYKKALLLLCGEDD
# Columns and labels:
# CD142/TF [1] = test: CD142/TF expression in PBMC stimulated with TLR ligands, mass cytometry; assay type: cell-based, human; details: PBMC from HC stimulated 4 h, vs no treated (NT) controls
# Protocol: FIGS. 12A-12C: Inflammatory mediators increase CD142/TF expression and activity in monocytes. A) PBMC were isolated from HC and stimulated with Pam2CSK4(TLR2), Poly(I:C) (TLR3), and LPS (TLR4) for 4 h. […] Circles represent CD14+ monocytes. B) PBMC were isolated and stimulated with LPS and Ang II (vascular activator) and TF activity was quantified based on the ability of TF/FVIIa to activate FX to factor Xa. The amidolytic activity of the TF/FVIIa complex is quantitated by the amount of FXa produced using a FXa substrate which releases a chromophore upon cleavage. *p<0.05. C) To probe for the mechanisms that regulate TF expression in circulating monocytes, PBMC were isolated and stimulated with LPS with or without Annexin V (AnnV) to block apoptotic sensing (through masking of PS on target cells/particles) in monocytes. […] Results representative of 3 independent experiments.
# To determine if inflammatory mediators can drive monocyte TF expression, CD14+ monocytes were isolated from PBMCs and stimulated with TLR ligands (Pam2Csk4; Poly(I:C); LPS) for 4 hours.
# Measurement of inflammatory mediated TF expression. To determine if inflammatory mediators can drive monocyte TF expression, CD14+ monocytes were isolated from peripheral blood mononuclear cells (PBMC) and were stimulated with TLR ligands (Pam2Csk4; Poly(I:C); LPS) for 4 hours. To assess if monocyte-bound TF is active, a FXa activity assay was used. CD14+ monocytes were stimulated with LPS and FXa activity was assessed as a marker of TF activity.
# STAT1 = test: Signal pathway activation in monocytes/PBMC treated with LPS and heparin, microfluidic proteomics (phospho-STAT1); assay type: cell-based, human; details: LPS 1 ug/ml 4 h cotreated with heparin 10 u/ml, vs LPS alone
# p-p65 and p-PKC = test: Signal pathway activation in CD14+ monocytes treated with LPS and heparin, microfluidic proteomics (p-p65, p-PKC); assay type: cell-based, human; details: LPS 1 ug/ml 4 h and heparin 10 u/ml, between groups
# Protocol: (§1) FIGS. 3A-3B: Heparin augments type I IFN/STAT1 signaling and tends to blunt CD142/TF transcriptional induction in response to LPS. A) CD14+ monocytes were stimulated with LPS (1 ug/ml; 4 h) and heparin (Hep) (10 u/ml) and signal pathway activation was probed using microfluidic proteomics. […] However, phospo-STAT1 activation was augmented in monocytes cotreated with LPS and Hep. Normalized activation determined by normalizing phospho proteins to total protein. B) qRT-PCR of CD14+ monocytes treated with LPS with and without Hep. […] Fold-change determined normalizing to GAPDH and to NT groups. *p<0.05; #p=0.07
# PBMC treatment and stimulation. Approximately 10 million cells were equally divided into 4 fractions and treated with the following (for Hep experiments): 1) Hep (1.5 U/mL), 2) LPS (1 μg/mL), 3) LPS+Hep (1 μg/mL LPS with 1.5 U/mL Hep), and 4) RPMI medium alone. All treatments were performed for 2 hours in suspension at 37° C. and 5% CO2 with gentle vortexing every 30 minutes to prevent cell sedimentation. After 2-hour incubation, cells were centrifuged, and supernatants were collected. Cells were then resuspended in 1 mL PBS (without Ca^2+ and Mg ^2+) for downstream analysis
# PBMC = test: Signaling pathway activation and inflammatory transcriptional programs in PBMC, heparin alone; assay type: cell-based, human
# CD142/TF [2] = test: qRT-PCR of CD142/TF in CD14+ monocytes treated with LPS with and without heparin; assay type: cell-based, human
# Protocol: as §1
# PCR gene expression assay. RNA was then eluted in 32 uL RNase free water and concentration and purity were measured using Nanodrop. Applied Biosystems High-Capacity cDNA Reverse Transcription kit was used to convert RNA into cDNA for qPCR per the manufacturer's instructions. PCR was performed in 96 well plate using Taqman master mix and Taqman primers. 1× GAPDH-VIC and 1× target gene-FAM was used for each PCR reaction as housekeeping control gene and target gene respectively (total of 20 μL reaction volume). “No treatment control” is used to normalize each target gene expression for analysis of experimental groups.
# CD142/Tissue factor = CD142/Tissue factor expression on PBMC populations by flow cytometry; assay type: cell-based, human; details: for CD142 expression (percent positive CD142+) in monocytes and granulocytes: PBMCs, 1 ug/mL LPS or 155 ug/mL LpA, 4 hours; for CD142/Tissue factor induction by LPS: PBMC pre-treated 1 hr with Annexin V 10 ug/ml, then LPS 1 ug/ml 4 hours
# Protocol: (§2) FIGS. 2A-2B: Monocytes activated by inflammatory stimuli increase TF/CD142 expression and activity. PBMC were isolated from healthy controls and stimulated with LPS (1 ug/ml for 4 h) and compared with no treatment (NT) controls. […] B) Tissue factor activity was assessed in both cells and supernatants in PBMC treated with LPS (1 ug/ml for 4 h). The tissue factor activity was quantified based on the ability of TF/FVIIa to activate FX to factor Xa. The amidolytic activity of the TF/FVIIa complex is quantitated by the amount of FXa produced using a highly specific FXa substrate which releases a chromophore upon cleavage. *p<0.05.
# (§3) FIGS. 5A-5C: Annexin V peptide pretreatment blocks LPS induction of CD142/Tissue factor and CD142/Tissue factor activity. PBMC were pre-treated for 1 hr with Annexin V (10 ug/ml) or PBS and then stimulated with LPS (1 ug/ml) for 4 hours. PBMC were analyzed with either flow cytometry or tissue factor activity assay. A) Representative SSC vs. FSC gating strategy for Monocytes and Lymphocytes; B) CD142/Tissue factor was assessed by flow cytometry. Annexin V pre-treatment blocks CD142/Tissue factor induction by LPS. C). CD142/Tissue factor activity using substrate cleavage and FXa generation. Results are representative of three independent experiments. *p<0.05
# PBMCs were isolated and treated with 1 ug/mL LPS, 155 ug/mL LpA, or a combination of the above for 4 hours with gentle vortexing every 30 minutes. Cells were blocked with Tru-Stain FcX for 10 minutes and then treated with human anti CD142-PE for 30 minutes on ice. Cells were then analyzed via flow cytometry. (A) Representative FSC vs. SSC gating strategy. (B) Percent positive CD142+ for lymphocytes. (C) Percent positive CD142+ for monocytes. (D) Percent positive CD142+ for granulocytes. N=3. *p-value<0.0001 (ANOVA).
# TF/FVIIa complex = test: Tissue factor activity assay (TF/FVIIa activation of FX to FXa, chromogenic substrate) in PBMC; assay type: cell-based, human
# Protocol: as §2
# as §3, with “Annexin V pre-treatment blocks CD142/Tissue factor induction by LPS. C). CD142/Tissue factor activity using substrate cleavage and FXa generation. Results are representative of three independent experiments. *p<0.05” left out
# Active TF catalyzes the conversion of factor X to Xa; TF activity in plasma, microvesicles, and monocytes were measured by quantifying factor Xa activity using the fluorogenic factor Xa substrate (Abcam). TF activity was quantified based on the ability of TF/FVIIa to activate FX to FXa. […]
# NFκB = NFκB activation in THP1-Dual monocytes (SEAP, QUANTI-Blue assay); assay type: cell-based, human; details: 24 h, 77.5 ug/mL Lp(a)
# Protocol: FIG. 10: Lp(a) increases NFκB induction on THP1-Dual monocytes; addition of TLR2 decreases activation effect of Lp(a). THP1-Dual monocytes stimulated for 24 h with 77.5 ug/mL Lp(a), 77.5 μg/mL Lp(a)+10 μg/mL TR2, 77.5 μg/mL Lp(a)+10 μg/mL TR4, and 100 ng/mL Pam2CSK4. After 24 h stimulation, supernatant was collected and NFκB activation was assessed by measuring the levels of SEAP using QUANTI-Blue assay. Levels of SEAP were determined by reading the optical density at 640 nm. *p-value<0.0001 (ANOVA).
# THP1-Dual monocytes stimulated for 24 h with 77.5 ug/mL Lp(a), 77.5 ug/mL Lp(a)+10 ug/ml TLR2, 77.5 ug/ml Lp(a)+10 ug/ml TLR4, and 100 ng/mL Pam2CSK4. After 24 h stimulation, supernatant was collected and NFkB activation was assessed by measuring the levels of SEAP using QUANTI-Blue assay. Levels of SEAP were determined by reading the optical density at 640 nm. *p-value<0.0001 (ANOVA). […] THP1-Dual monocytes stimulated for 24 h with 77.5 ug/mL Lp(a), 77.5 ug/mL Lp(a)+10 ug/ml TLR2, 77.5 ug/ml LpA+10 ug/ml TLR4, and 100 ng/mL Pam2CSK4. After 24 h stimulation, supernatant was collected and IRF activation was assessed by measuring the levels of Lucia luciferase using QUANTI-Luc assay. Levels of Lucia luciferase were determined by measuring the relative light units (RLUs) in a luminometer at a 100 ms reading time.
molecule,measurement,setting,value
Pam2CSK4,"CD142/TF expression (viSNE plots, CD14+ monocytes)",CD142/TF [1],increased CD142/TF expression
Poly(I:C),"CD142/TF expression (viSNE plots, CD14+ monocytes)",CD142/TF [1],increased CD142/TF expression
heparin,phospho-STAT1 activation (phospho protein normalized to total protein),STAT1,augmented; also recorded: increases in STAT1 activation
same,p-p65 and p-PKC activation,p-p65 and p-PKC,no differences
same,signaling pathway activation or inflammatory transcriptional programs,PBMC,no effects
same,transcriptional induction of CD142/TF by LPS,"CD142/TF [2]; cotreatment with LPS and heparin, fold-change normalized to GAPDH and NT, #p=0.07",trend to blunted transcriptional expression; also recorded: seemed to blunt
same,cytotoxicity,PBMCs,not cytotoxic
lipopolysaccharide [LPS],CD142/TF transcriptional expression,"CD142/TF [2]; LPS alone, CD14+ monocytes, vs NT",induced
same,CD142/TF expression in monocytes,"CD142/Tissue factor; LPS 1 ug/ml, 2-4 h, vs no treatment (NT)",induce TF expression; also recorded: rapid and robust induction; also recorded: rapidly drives TF expression
same,CD142 expression (percent positive CD142+) in monocytes and granulocytes,CD142/Tissue factor,upregulated
same,TF induction in purified CD14+ Mϕ compared with bulk PBMC stimulation,CD142/Tissue factor; response to LPS,much less TF induction
same,TF activity (FXa production),"TF/FVIIa complex; PBMC/monocytes stimulated with inflammatory stimulus, vs untreated",increases TF activity
same,"CD142/TF expression (viSNE plots, CD14+ monocytes)",CD142/TF [1],increased CD142/TF expression
lipoprotein (a) [Lp(a)],CD142 expression (percent positive CD142+) in monocytes and granulocytes,CD142/Tissue factor,upregulated
same,"NFκB induction (SEAP, optical density at 640 nm)",NFκB,increases
B1,CD142/Tissue factor induction by LPS,CD142/Tissue factor,blocks
same,CD142/Tissue factor induction by LPS,CD142/Tissue factor; listed as AnnV,greatly reduced
same,CD142/Tissue factor induction by LPS,CD142/Tissue factor; listed as annexin V,dramatic blunting
same,CD142/Tissue factor activity (FXa generation) induced by LPS,"TF/FVIIa complex; PBMC pre-treated 1 hr with Annexin V 10 ug/ml, then LPS 1 ug/ml 4 hours",blocks
